Measurements: patent US9119395B2, “Active substance mixtures comprising OPP and amines, microbicidal agents” (LANXESS Deutschland GmbH, priority 2005, dated 2015)

Assays:
[1] = test system: microorganism mixture: Pseudomonas aeruginosa, Pseudomonas fluorescens, Pseudomonas oleovorans, Pseudomonas rubescens, Pseudomonas stutzeri, Alcalaigenes …; experiment: Microbiological preservation stress test in a chalk suspension; format: cell-based; details: 60° C. for 3 days before test, weekly contamination
Description: The preserving action of an active compound mixture according to the invention was examined in a chalk suspension using a preservation stress test.
The microbiological stress test examines the susceptibility of water-based systems to microbial attack and the action of preservatives. To this end, the preservatives are incorporated in defined concentrations into the water-based systems. To simulate praxis-like conditions, depending on the medium to be examined, a storage at elevated temperatures (for example 7 days at 40° C., 3 days at 60° C. or the like) may be carried out prior to the actual preservation test to evaluate the preservatives to be examined under conditions which are as realistic as possible. After the preparations have been carried out, contamination with microorganisms of a defined species is carried out at weekly intervals over a test period of at most 6 weeks. 2-3 and 7 days after each contamination, by counting the number of germs, it is established whether a complete kill or at least inhibition of propagation of the bacteria introduced has been achieved, compared to the unpreserved control samples.
The contamination source used for the examination in the stress test was the following microorganism mixture:
Very good activity is achieved when, even after 6 contamination cycles, the reserved samples effect a kill of the microorganisms introduced.
Using a chalk suspension (proportion of solids 70-75%), a preservation stress test according to the above scheme was carried out. After incorporation of the respective biocidally active compounds at the stated concentrations, the samples were exposed to thermal stress at 60° C. for 3 days. The samples pre-treated in this manner were then used for carrying out the microbiological stress test.

Pseudomonas fluorescens = experiment: Minimum inhibitory concentration and synergism (Kull synergistic index) of OPP/AMINE 1 combinations; format: cell-based; details: compound applied on its own (QA/QB)
Description: The observed synergism of the mixtures according to the invention can be determined by the following mathematical approach (cf. F. C. Kull, P. C. Elisman, H. D. Sylwestrowicz and P. K. Mayer, Appl. Microbiol, 9, 538 (1961):
[formula] where • Qa=the amount of component A in the active compound mixture required to achieve the desired effect, i.e. no microbial growth, • QA=the amount of component A which, applied on its own, suppresses the growth of the microorganisms, • Qb=the amount of component B in the active compound mixture which suppresses the growth of the microorganisms, • Qb=the amount of component B which, applied on its own, suppresses the growth of the microorganisms.
A synergistic index of SI<1, in accordance with the above formula, indicates a synergistic effect for the active compound mixture.
The minimum inhibitory concentration of the active compound combinations listed in Table 1 were examined using the test germ Pseudomonas fluorescens

Oc1ccccc1-c1ccccc1 [OPP, o-phenylphenol]
500 (=QA) ppm: Amount of pure active compounds required to suppress growth (Pseudomonas fluorescens)
spoilt: Week 2 ([1]; 150 ppm) | Week 3 ([1]; 150 ppm) | Week 4 ([1]; 150 ppm) | Week 5 ([1]; 150 ppm) | Week 6 ([1]; 150 ppm) | Week 5 ([1]; 200 ppm) | Week 6 ([1]; 200 ppm)
ok: Week 1 ([1]; 150 ppm) | Week 1 ([1]; 200 ppm) | Week 2 ([1]; 200 ppm) | Week 3 ([1]; 200 ppm) | Week 4 ([1]; 200 ppm)

CCCCCCCCCCCCN(CCCN)CCCN [“AMINE 1”, bis(3-aminopropyl)dodecylamine]
ok: Week 1 ([1]; 80 ppm) | Week 1 ([1]; 160 ppm) | Week 2 ([1]; 160 ppm) | Week 3 ([1]; 160 ppm)
50 (=QB) ppm: Amount of pure active compounds required to suppress growth (Pseudomonas fluorescens)
spoilt: Week 2 ([1]; 80 ppm) | Week 3 ([1]; 80 ppm) | Week 4 ([1]; 80 ppm) | Week 5 ([1]; 80 ppm) | Week 6 ([1]; 80 ppm) | Week 4 ([1]; 160 ppm) | Week 5 ([1]; 160 ppm) | Week 6 ([1]; 160 ppm)
